The test has as its target JAK2 (Homo sapiens, UniProt O60674). As to the kind of experiment: biochemical.

JAK2, sequence (O60674 whole entry): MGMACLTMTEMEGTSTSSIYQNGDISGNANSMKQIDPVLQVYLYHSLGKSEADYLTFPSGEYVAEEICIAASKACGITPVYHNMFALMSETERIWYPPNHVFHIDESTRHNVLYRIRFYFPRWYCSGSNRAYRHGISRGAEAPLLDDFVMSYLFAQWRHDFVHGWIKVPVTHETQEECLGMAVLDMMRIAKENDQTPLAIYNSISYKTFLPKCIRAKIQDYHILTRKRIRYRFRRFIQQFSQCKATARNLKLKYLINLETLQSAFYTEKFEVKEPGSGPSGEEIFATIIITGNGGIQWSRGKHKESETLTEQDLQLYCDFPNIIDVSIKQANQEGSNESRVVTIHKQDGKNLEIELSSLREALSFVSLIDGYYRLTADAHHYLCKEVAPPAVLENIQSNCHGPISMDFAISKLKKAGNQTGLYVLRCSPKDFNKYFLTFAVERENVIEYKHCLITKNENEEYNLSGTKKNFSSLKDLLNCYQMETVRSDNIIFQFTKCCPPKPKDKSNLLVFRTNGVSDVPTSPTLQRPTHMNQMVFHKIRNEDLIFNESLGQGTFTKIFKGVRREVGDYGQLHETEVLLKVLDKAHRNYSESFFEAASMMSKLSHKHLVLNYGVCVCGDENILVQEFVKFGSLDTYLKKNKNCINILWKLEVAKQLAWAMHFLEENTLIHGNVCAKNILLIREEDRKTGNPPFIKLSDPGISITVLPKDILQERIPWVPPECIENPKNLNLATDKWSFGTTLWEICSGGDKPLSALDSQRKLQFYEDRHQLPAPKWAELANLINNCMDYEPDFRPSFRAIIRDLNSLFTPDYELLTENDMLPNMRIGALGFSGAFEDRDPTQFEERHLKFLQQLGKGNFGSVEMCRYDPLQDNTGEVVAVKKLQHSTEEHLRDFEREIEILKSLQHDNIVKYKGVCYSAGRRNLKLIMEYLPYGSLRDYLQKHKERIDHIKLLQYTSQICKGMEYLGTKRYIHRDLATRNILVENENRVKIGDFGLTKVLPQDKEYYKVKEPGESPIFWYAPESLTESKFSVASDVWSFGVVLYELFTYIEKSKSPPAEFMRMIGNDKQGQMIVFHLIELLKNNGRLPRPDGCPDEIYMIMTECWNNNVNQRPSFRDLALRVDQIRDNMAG

On to `O=C(c1ccccc1)c1ccc2nc3c4ccccc4c4ccccc4c3nc2c1` [SBLJ23, Dibenzo [a, c] phenazin-11-yl(phenyl) methanone], for which the half-inhibitory concentration (IC50) came to 522 nM.

Source of the values: article PMC11915075, “Dibenzo [a, c] phenazin-11-yl(phenyl) methanone (SBLJ23), a novel selective inhibitor targeting JAK2^V617F mutation in myeloproliferative neoplasms” (Oncology Research, 2025).
